Patent publication US20230174484A1, “ANTAGONISTS OF GPR39 PROTEIN” (Oregon Health & Science University, priority 2020, published 2023)
Where a name gives a salt, the structure may show the parent alone.

Molecular target: T1, human GPR39 receptor (Homo sapiens, UniProt O43194)
T1 construct: PC3 Cells, Expressing the Endogenous Human GPR39 Receptor; endogenous in cells; host or cells: PC3 (human prostate adenocarcinoma) cells
T1 sequence (O43194 1-453): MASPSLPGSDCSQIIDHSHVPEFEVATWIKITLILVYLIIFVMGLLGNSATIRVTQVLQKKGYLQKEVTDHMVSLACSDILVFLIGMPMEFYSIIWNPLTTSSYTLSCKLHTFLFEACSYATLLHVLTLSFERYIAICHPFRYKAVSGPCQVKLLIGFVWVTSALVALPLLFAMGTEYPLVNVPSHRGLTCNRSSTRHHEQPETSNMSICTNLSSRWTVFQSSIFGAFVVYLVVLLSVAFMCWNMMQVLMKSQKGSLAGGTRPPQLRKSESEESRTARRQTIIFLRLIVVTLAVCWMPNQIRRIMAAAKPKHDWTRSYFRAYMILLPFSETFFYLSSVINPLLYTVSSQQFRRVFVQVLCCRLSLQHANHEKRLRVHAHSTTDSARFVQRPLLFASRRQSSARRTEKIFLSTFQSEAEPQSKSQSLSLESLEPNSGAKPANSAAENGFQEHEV
Assay: Measurement of intracellular calcium response in PC3 cells (FLIPR), antagonism of the C3 agonist response
Format: cell-based
Conditions: functional pKi (modified Cheng-Prusoff), inhibition of the C3 (TC-G 1008) response at EC90, 30 μM ZnCl2, read-out: fpKi activity
Protocol: Human prostate adenocarcinoma (PC3) cells endogenously expressing human GPR39 receptor were seeded into black walls clear-base 384-well plates at a density of 7,500 cells per well in DM EM (Low Glucose) supplemented with 10% heat-inactivated foetal bovine serum and 1% of Pen/Strep and grown overnight at 37° C., 5% CO2. After washing with assay buffer (20 mM HEPES, 137 mM NaCI, 5.4 mM KCI, 10 mM glucose, 0.8 mM MgSO4, 1.3 mM CaCl2, 0.3 mM Na2HPO4, 0.4 mM KH2PO4 4.2 mM NaHCO3, pH 7.4), cells were incubated with Calcium-6 probe (Molecular Devices) at 37° C. for 2h and then equilibrated at RT for 30 minutes on metal block. The fluorescence was measured in real time by Fluorometric Imaging Plate Reader (FLIPR TETRA, Molecular Devices) (excitation wavelength at 470-495 nm, emission wavelength at 515-575 nm).
Compounds of invention were serially diluted in neat DMSO at 1000 fold concentrations and plated into 384-well plates and then 200-fold diluted in assay buffer containing 150 uM ZnCl2 (30 μM final concentration) and […].
Fluorescence was monitored throughout the run assay. The peak of Ca2+stimulation (baseline subtracted) was expressed as percentage of the maximal inhibition of the EC90 C3 response and was plotted versus the concentration of test compound. Curve fitting and IC50 estimations are carried out using a four-parameter logistic model using XLfit Software.
The potency of compounds was reported as functional pKi (—Log10Ki) obtained using the modified Cheng-Prusoff relationship (Cheng, Y., Prusoff, W. H. 1973.)
fKi =IC50/(1+[L]/EC50) where IC50 is the concentration of antagonist required for 50% inhibition of the maximum response, [L] is the concentration of the agonist used (EC90) and EC50 is the concentration of agonist need to induced 50% of the maximum response (obtained in each experimental plate).
An fpKi less than 5.2 is reported as “+/±”. An fpKi ranging from 5.2 to 5.9 is reported as “+”. An fpKi from 6.0 to 6.5 is reported as “++”. An fpKi from 6.6 to 7.2 is reported as “+++”. An fpKi equal to or greater than 7.3 is reported as “++++”.

CC1CN(c2cc(NC(=O)C3CC3)ccc2C(=O)N2CCS(=O)(=O)CC2)CC(C)O1 (racemic) [Example 188, N-[3-[(anti)-2,6-dimethylmorpholin-4-yl]-4-(1,1-dioxo-1,4-thiazinane-4-carbonyl)phenyl]cyclopropanecarboxamide]
Ki: 1.26 to 6.31 µM

CN1CCN(C(=O)c2ccc(NC(=O)C3CC3)cc2N2CCCCC2)C(c2ccccc2)C1 (racemic) [Example 201c, N-[4-(4-methyl-2-phenylpiperazine-1-carbonyl)-3-piperidin-1-ylphenyl]cyclopropanecarboxamide]
Ki: 0.0631 to 0.251 µM

CN1CCN(C(=O)c2ccc(NC(=O)C3CC3)cc2N2CCC(F)(F)C2)C(c2ccccc2)C1 (racemic) [Example 202c, N-[3-(3,3-difluoropyrrolidin-1-yl)-4-(4-methyl-2-phenylpiperazine-1-carbonyl)phenyl]cyclopropanecarboxamide]
Ki: 0.0631 to 0.251 µM

CN1CCN(C(=O)c2ccc(NC(=O)C3CC3)cc2N2CCC3(COC3)C2)C(c2ccccc2Cl)C1 (racemic) [Example 211, N-[4-[2-(2-chlorophenyl)-4-methylpiperazine-1-carbonyl]-3-(2-oxa-7-azaspiro[3.4]octan-7-yl)phenyl]cyclopropanecarboxamide]
Ki: 0.0631 to 0.251 µM

O=C(Nc1ccc(C(=O)N2CCC3(CC2)COC3)c(N2CCC(C(F)(F)F)C2)c1)C1CC1 (racemic) [Example 213c, N-[4-(2-oxa-7-azaspiro[3.5]nonane-7-carbonyl)-3-[3-(trifluoromethyl)pyrrolidin-1-yl]phenyl]cyclopropanecarboxamide]
Ki: 0.0631 to 0.251 µM

CCCN1CCN(C(=O)c2ccc(NC(=O)C3CC3)cc2N2C[C@@H](C)C[C@H](C)C2)CC1 (relative stereo) [Example 14b]
Ki: 0.0631 to 0.251 µM

C[C@@H]1C[C@@H](C)CN(c2cc(NC(=O)C3CC3)ccc2-c2ncc3n2CCN(C)C3)C1 (relative stereo) [Example 104a, N-[3-(3,5-dimethylpiperidin-1-yl)-4-(7-methyl-6,8-dihydro-5H-imidazo[1,5-a]pyrazin-3-yl)phenyl] cyclopropanecarboxamide]
Ki: 0.316 to 1 µM

C[C@@H]1C[C@@H](C)CN(c2cc(NC(=O)C3CC3)ccc2-c2nnc(Sc3ccccc3)n2C)C1 (relative stereo) [Example 114a, N-[3-(3,5-dimethylpiperidin-1-yl)-4-(4-methyl-5-phenylsulfanyl-1,2,4-triazol-3-yl)phenyl]cyclopropanecarboxamide]
Ki: 0.0631 to 0.251 µM

CCCN1CCN(C(=O)c2ccc(NC(=O)C3CC3)cc2N2CCC(C)C2)CC1 (single isomer, unassigned) [Example 13a, N-(3-[(3R or 3S] 3-methylpyrrolidin-1-yl]-4-(4-propylpiperazine-1-carbonyl)phenyl) cyclopropanecarboxamide]
Ki: 0.0631 to 0.251 µM

CN1CCN(C(=O)c2ccc(NC(=O)C3CC3)cc2N2CCCC2)C(c2ccccc2)C1 (single isomer, unassigned) [Example 62a, (2R or 2S) n-[4-(4-methyl-2-phenylpiperazine-1-carbonyl)-3-pyrrolidin-1-ylphenyl] Cyclopropanecarboxamide]
Ki: ≤ 0.0501 µM

CN1CCN(C(=O)c2ccc(NC(=O)C3CC3)cc2N2CCCC2)C(c2ccccc2)C1 (single isomer, unassigned) [Example 62d, 2R or 2S N-[4-(4-methyl-2-phenylpiperazine-1-carbonyl)-3-pyrrolidin-1-ylphenyl]cyclopropanecarboxamide hydrochloride]
Ki: 0.0631 to 0.251 µM

CC1CCN(c2cc(NC(=O)C3CC3)ccc2C(=O)N2CCC(C(F)(F)F)CC2)C1 (single isomer, unassigned) [Example 63a, (N-[3-(3R or 3S-methylpyrrolidin-l-yl)-4-[4-(trifluoromethyl)piperidine-1-carbonyl]phenyl]cyclopropanecarboxamide]
Ki: ≤ 0.0501 µM
